Reference: the NIST ThermoML archive (doi:10.1021/je400158p)
± gives the expanded uncertainty stated by the source.

Assay: excess molar enthalpy (molar enthalpy of mixing); xn = mol fraction of the nth substance listed
Conditions: 298.15 K, 101 kPa, Liquid, Calvet calorimetry

Row | SMILES | excess molar enthalpy (x1 = 0.2) [kcal/mol] | excess molar enthalpy (x1 = 0.401) [kcal/mol] | excess molar enthalpy (x1 = 0.501) [kcal/mol] | excess molar enthalpy (x1 = 0.804) [kcal/mol] | excess molar enthalpy (x1 = 0.1) [kcal/mol] | excess molar enthalpy (x1 = 0.4) [kcal/mol] | excess molar enthalpy (x1 = 0.5) [kcal/mol] | excess molar enthalpy (x1 = 0.7) [kcal/mol]
1 | OCCOCCO [diethylene glycol] + O | -0.291 ± 0.00335 | -0.291 ± 0.00335 | -0.275 ± 0.00311 | -0.111 ± 0.00263 |  |  |  | 
2 | CCn1cc[n+](C)c1.COP(=O)([O-])OC [1-ethyl-3-methylimidazolium dimethylphosphate] + O | -1.3 ± 0.0105 |  |  |  | -0.881 ± 0.00813 | -1.463 ± 0.0115 | -1.381 ± 0.011 | -1.008 ± 0.00813
3 | CCn1cc[n+](C)c1.COP(=O)([O-])OC [1-ethyl-3-methylimidazolium dimethylphosphate] + CO | -0.6728 ± 0.0055 |  |  |  |  | -0.8537 ± 0.00669 |  | -0.5566 ± 0.00478
4 | CCn1cc[n+](C)c1.COP(=O)([O-])OC [1-ethyl-3-methylimidazolium dimethylphosphate] + CCO | -0.5184 ± 0.00478 |  |  |  | -0.311 ± 0.00406 | -0.6726 ± 0.0055 |  | -0.4333 ± 0.00406
